Measurements as given in patent US7329749B2, “Piperazinylcarbonylquinolines and -isoquinolines” (Merck Patent Gesellschaft, priority 2001, dated 2008).

Assays:
Format in all cases: binding
D2 receptor = D2 receptor (Homo sapiens, UniProt P14416); assay: IC50 at the D2 receptor
5-HT1B receptor = 5-HT1B receptor (Homo sapiens, UniProt P28222); assay: IC50 at the 5-HT1B receptor
5-HT1D receptor = 5-HT1D receptor (Homo sapiens, UniProt P28221); assay: IC50 at the 5-HT1D receptor
5-HT2A receptor = target: T1, 5-HT2A receptor (Rattus norvegicus, UniProt P14842); assay: affinity to 5-HT2A receptors, [3H]ketanserine displacement (Example A1)
T1 construct: Frontal rat cortex is homogenised in ice-cold buffer; from tissue; host or cells: rat frontal cortex homogenate
T1 sequence (P14842 whole entry): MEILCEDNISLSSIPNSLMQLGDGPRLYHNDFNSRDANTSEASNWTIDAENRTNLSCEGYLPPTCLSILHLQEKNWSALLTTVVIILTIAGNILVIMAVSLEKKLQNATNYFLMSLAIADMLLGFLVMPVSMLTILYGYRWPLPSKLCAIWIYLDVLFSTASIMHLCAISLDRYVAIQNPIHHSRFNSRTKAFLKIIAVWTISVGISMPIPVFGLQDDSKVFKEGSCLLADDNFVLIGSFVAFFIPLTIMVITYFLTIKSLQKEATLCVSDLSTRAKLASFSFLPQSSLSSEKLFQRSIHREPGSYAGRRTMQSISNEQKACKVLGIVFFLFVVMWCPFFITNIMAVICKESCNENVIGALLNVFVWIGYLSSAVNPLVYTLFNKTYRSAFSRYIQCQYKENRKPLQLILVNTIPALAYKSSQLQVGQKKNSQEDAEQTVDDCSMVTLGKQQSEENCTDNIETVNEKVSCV
Procedure: For in-vitro detection of the affinity to 5-HT2A receptors, the following test (Example A1), for example, can be used. The 5-HT2A receptors are exposed both to [^3H]ketanserine (a substance which is known for its affinity to the receptor) and also to the test compound. The decrease in the affinity of [^3H]ketanserine to the receptor is an indication of the affinity of the test substance to the 5-HT2A receptor. The detection is carried out analogously to the description by J. E. Leysen et al., Molecular Pharmacology, 1982, 21: 301-314, or as also described, for example, in EP 0320983.
Preparation of a suspension of 5-HT2A receptors: Frontal rat cortex is homogenised in ice-cold buffer. The homogenate is centrifuged at 4° C. and 50,000×for 10 minutes. The pellet is re-suspended in 2.5 ml of ice-cold tris buffer, made up with 10 ml of additional buffer and centrifuged as described. The pellet is then re-suspended in buffer and diluted to give a homogenate which comprises 60 mg of material/ml. 0.1 ml of the suspension, 100 μl of a 5 nM solution of [^3H]ketanserine, 100 μl of a solution of the test compound (concentration in the range from 10^−5 to 10^−10 mol per litre) are introduced into the incubation tubes and made up to 1 ml with buffer. The tubes are incubated at 37° C. for 15 minutes. […] The filters are analysed by liquid scintillation spectrometry in 8 ml of Triton-X scintillator liquid.

5-HT2C receptor = 5-HT2C receptor (Homo sapiens, UniProt P28335); assay: IC50 at the 5-HT2C receptor
Sequence of 5-HT2C receptor (P28335 33-458): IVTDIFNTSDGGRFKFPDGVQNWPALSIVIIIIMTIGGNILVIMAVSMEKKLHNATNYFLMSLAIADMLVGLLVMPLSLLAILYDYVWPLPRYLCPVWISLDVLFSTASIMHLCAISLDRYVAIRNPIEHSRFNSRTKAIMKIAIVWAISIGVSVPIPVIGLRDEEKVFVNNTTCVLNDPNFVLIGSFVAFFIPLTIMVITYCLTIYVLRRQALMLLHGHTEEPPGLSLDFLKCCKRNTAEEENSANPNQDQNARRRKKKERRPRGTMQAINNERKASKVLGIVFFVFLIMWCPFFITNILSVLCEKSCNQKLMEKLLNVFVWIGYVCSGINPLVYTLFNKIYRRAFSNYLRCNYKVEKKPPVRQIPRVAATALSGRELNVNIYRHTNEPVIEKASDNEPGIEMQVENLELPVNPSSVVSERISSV

5-HT1A receptor = target: T2, 5-HT1A receptor (Homo sapiens, UniProt P08908); assay: IC50 at the 5-HT1A receptor
T2 sequence (P08908 1-422): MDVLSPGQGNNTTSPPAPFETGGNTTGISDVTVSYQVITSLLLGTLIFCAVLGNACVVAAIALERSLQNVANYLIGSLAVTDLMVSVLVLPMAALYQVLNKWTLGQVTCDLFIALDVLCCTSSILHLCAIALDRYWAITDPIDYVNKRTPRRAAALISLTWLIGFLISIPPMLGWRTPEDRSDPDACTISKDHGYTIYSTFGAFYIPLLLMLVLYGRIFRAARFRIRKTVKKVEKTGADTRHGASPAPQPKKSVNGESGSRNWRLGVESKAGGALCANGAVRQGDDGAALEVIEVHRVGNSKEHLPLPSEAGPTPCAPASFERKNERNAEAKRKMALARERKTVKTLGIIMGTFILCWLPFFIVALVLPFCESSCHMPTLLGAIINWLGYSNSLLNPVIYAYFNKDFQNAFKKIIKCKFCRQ

Sequence of 5-HT1D receptor (P28221 whole entry): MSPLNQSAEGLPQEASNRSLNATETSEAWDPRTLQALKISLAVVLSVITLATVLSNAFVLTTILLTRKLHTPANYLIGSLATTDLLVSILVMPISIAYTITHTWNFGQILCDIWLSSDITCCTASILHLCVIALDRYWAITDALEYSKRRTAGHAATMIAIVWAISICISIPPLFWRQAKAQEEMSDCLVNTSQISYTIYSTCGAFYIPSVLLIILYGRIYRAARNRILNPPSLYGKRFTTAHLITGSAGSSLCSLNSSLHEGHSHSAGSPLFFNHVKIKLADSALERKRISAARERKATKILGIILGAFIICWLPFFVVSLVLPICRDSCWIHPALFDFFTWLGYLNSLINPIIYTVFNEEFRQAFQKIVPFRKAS
Sequence of 5-HT1B receptor (P28222 whole entry): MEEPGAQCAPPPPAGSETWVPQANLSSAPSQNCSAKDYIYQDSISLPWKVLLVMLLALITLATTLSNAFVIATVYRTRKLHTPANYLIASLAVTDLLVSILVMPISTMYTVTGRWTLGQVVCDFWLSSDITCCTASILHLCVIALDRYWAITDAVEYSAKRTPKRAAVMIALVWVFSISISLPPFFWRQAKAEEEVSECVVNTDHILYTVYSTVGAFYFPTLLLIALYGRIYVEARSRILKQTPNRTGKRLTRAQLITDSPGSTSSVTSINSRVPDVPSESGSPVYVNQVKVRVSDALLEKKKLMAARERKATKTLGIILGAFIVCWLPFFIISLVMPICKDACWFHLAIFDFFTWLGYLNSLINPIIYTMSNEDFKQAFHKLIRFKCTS
Sequence of D2 receptor (P14416 whole entry): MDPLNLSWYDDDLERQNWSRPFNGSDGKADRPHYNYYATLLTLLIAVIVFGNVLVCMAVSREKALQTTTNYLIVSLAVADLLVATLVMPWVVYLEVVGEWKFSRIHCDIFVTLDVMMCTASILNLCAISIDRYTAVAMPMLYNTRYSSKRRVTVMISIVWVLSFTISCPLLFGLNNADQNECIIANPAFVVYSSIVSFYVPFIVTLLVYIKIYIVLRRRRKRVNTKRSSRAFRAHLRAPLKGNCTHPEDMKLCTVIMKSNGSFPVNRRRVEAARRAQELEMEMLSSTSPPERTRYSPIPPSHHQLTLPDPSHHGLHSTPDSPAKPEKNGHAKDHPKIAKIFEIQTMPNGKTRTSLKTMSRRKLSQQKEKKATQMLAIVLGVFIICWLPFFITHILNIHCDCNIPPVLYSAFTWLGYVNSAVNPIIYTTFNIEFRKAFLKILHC

## O=C(c1nccc2ccccc12)N1CCN(CCc2ccc(F)cc2)CC1 [Example 1, {4-[2-(4-fluorophenyl)ethyl]piperazin-1-yl}isoquinolin-1-ylmethanone]
D2 receptor
  IC50: > 1000 nM
5-HT1B receptor
  IC50: > 1000 nM
5-HT1D receptor
  IC50: > 1000 nM
5-HT2A receptor
  IC50: 1 nM
5-HT2A receptor; 5-HT2A versus 5-HT2C, 5-HT1A, 5-HT1B, 5-HT1D and D2 receptors
  factor by which the affinities differ: greater than 1000
5-HT2C receptor
  IC50: > 1000 nM
5-HT1A receptor
  IC50: > 1000 nM
